According to US10765114B2, “4-amino-6-(pyridyl and 2-substitutedphenyl)-picolinates and 6-amino-2-(pyridyl and 2-substitutedphenyl)-pyrimidine-4-carboxylates and their use as herbicides” (Dow AgroSciences LLC, priority 2013, dated 2020):

Legend:
Assay in all cases: Post-Emergent Test III (Wheat and Barley)
APESV (windgrass) = format: in vivo, Apera spica-venti
Protocol: (§1) Seeds of the desired test plant species were planted in Sun Gro MetroMix® 306 planting mixture, which typically has a pH of 6.0 to 6.8 and an organic matter content of about 30 percent, in plastic pots with a surface area of 103.2 square centimeters (cm^2). When required to ensure good germination and healthy plants, a fungicide treatment and/or other chemical or physical treatment was applied. The plants were grown for 7-36 days in a greenhouse with an approximate 14 h photoperiod which was maintained at about 18° C. during the day and 17° C. during the night. Nutrients and water were added on a regular basis and supplemental lighting was provided with overhead metal halide 1000-Watt lamps as necessary. The plants were employed for testing when they reached the second or third true leaf stage.
(§2) A weighed amount, determined by the highest rate to be tested, of each test compound was placed in a 25 mL glass vial and was dissolved in 4 mL of a 97:3 v/v mixture of acetone and DMSO to obtain concentrated stock solutions. […] The concentrated stock solutions obtained were diluted with 20 mL of an aqueous mixture containing acetone, water, isopropyl alcohol, DMSO, Agri-Dex crop oil concentrate, and X-77 surfactant in a 48:39:10:1.5:1.5:0.02 v/v ratio to obtain spray solutions containing the highest application rates. Additional application rates were obtained by serial dilution of 12 mL of the high rate solution into a solution containing 2 mL of 97:3 v/v mixture of acetone and DMSO and 10 mL of an aqueous mixture containing acetone, water, isopropyl alcohol, DMSO, Agri-Dex crop oil concentrate, and X-77 surfactant in a 48:39:10:1.5:1.5:0.02 v/v ratio to obtain ½×, ¼×, ⅛× and 1/16× rates of the high rate. Compound requirements are based upon a 12 mL application volume at a rate of 187 liters per hectare (L/ha). Formulated compounds were applied to the plant material with an overhead Mandel track sprayer equipped with 8002E nozzles calibrated to deliver 187 L/ha over an application area of 0.503 square meters at a spray height of 18 inches (43 cm) above the average plant canopy height. Control plants were sprayed in the same manner with the solvent blank.
(§3) The treated plants and control plants were placed in a greenhouse as described above and watered by subirrigation to prevent wash-off of the test compounds. After 21 dAYS, the condition of the test plants as compared with that of the untreated plants was determined visually and scored on a scale of 0 to 100 percent where 0 corresponds to no injury and 100 corresponds to complete kill and presented as indicated in Table A.
(§4) By applying the well-accepted probit analysis as described by J. Berkson in Journal of the American Statistical Society, 48, 565 (1953) and by D. Finney in “Probit Analysis” Cambridge University Press (1952), herbicidal injury of a specific compound at various rates can be used to calculate GR10, GR20, GR50, GR80 and GR90 values, which are defined as growth reduction factors that correspond to the effective dose of herbicide required to provide plant growth reduction (GR) of 10 percent, 20 percent, 50 percent, 80 percent and 90 percent, respectively. Probit analysis was applied to data collected from multiple dose rates of individual compounds utilizing the procedures explained in the following examples. The analysis of those dose rates is captured in the following tables.

[1] = system: LAMPU (purple deadnettle); format: in vivo, Lamium purpureum; settings: for Visual Growth Reduction (%) 21 Days After Application, LAMPU: postemergence
Protocol: as §1, §2, §3, §4

POLCO (wild buckwheat) = format: in vivo, Polygonum convolvulus; settings: for Visual Growth Reduction (%) 21 Days After Application, POLCO: postemergence
Protocol: as §1, §2, §3, §4

TRZSS = format: in vivo
Method in brief: (§5)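 Seedlings are raised in a greenhouse at about 18/17 °C with a 14 h photoperiod until the second or third true leaf. They are then sprayed overhead at 187 L/ha over a range of rates down to 1/16× the highest. After 21 days, injury is scored visually, 0–100%.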

BRSSS = format: in vivo; settings: for Visual Growth Reduction (%) 21 Days After Application, BRSSS: postemergence
Method in brief: as §5

HORSS = format: in vivo
Method in brief: as §5

SASKR (Russian thistle) = format: in vivo, Salsola tragus; settings: for Visual Growth Reduction (%) 21 Days After Application, SASKR: postemergence
Protocol: as §1, §2, §3, §4

KCHSC (kochia) = format: in vivo, Kochia scoparia
Method in brief: as §5

[2] = effective dose for growth reduction of 50 percent, probit analysis
[3] = effective dose for growth reduction of 80 percent, probit analysis
[4] = effective dose for growth reduction of 90 percent, probit analysis
[5] = effective dose for growth reduction of 10 percent, probit analysis
[6] = effective dose for growth reduction of 20 percent, probit analysis

Cc1c(-c2cc(N)c(Cl)c(C(=O)O)n2)ccc(Cl)c1F [Compound 52]
pest or weed control at 35 g/ha (APESV (windgrass); Apera spica-venti, post-emergence, 504 h, 35 g ai/ha, postemergence, read-out: Visual Growth Reduction (%) 21 Days After Application, APESV): 60 to 74%
pest or weed control at 70 g/ha (APESV (windgrass); Apera spica-venti, post-emergence, 504 h, 70 g ai/ha, postemergence, read-out: Visual Growth Reduction (%) 21 Days After Application, APESV): 75 to 84%
pest or weed control at 140 g/ha (APESV (windgrass); Apera spica-venti, post-emergence, 504 h, 140 g ai/ha, postemergence, read-out: Visual Growth Reduction (%) 21 Days After Application, APESV): 85 to 94%
GR50, APESV (APESV (windgrass); [2]): 23 g ai/ha
GR80, APESV (APESV (windgrass); [3]): 63 g ai/ha
GR90, APESV (APESV (windgrass); [4]): 107 g ai/ha
Visual Growth Reduction (%) 21 Days After Application, LAMPU ([1]; 35 g ai/ha): A (95-100)
Visual Growth Reduction (%) 21 Days After Application, LAMPU ([1]; 70 g ai/ha): A (95-100)
Visual Growth Reduction (%) 21 Days After Application, LAMPU ([1]; 140 g ai/ha): A (95-100)
GR50, LAMPU [1, 2]: <17.5 g ai/ha
GR80, LAMPU [1, 3]: <17.5 g ai/ha
GR90, LAMPU [1, 4]: <17.5 g ai/ha
Visual Growth Reduction (%) 21 Days After Application, POLCO (POLCO (wild buckwheat); 35 g ai/ha): D (60-74)
Visual Growth Reduction (%) 21 Days After Application, POLCO (POLCO (wild buckwheat); 70 g ai/ha): C (75-84)
Visual Growth Reduction (%) 21 Days After Application, POLCO (POLCO (wild buckwheat); 140 g ai/ha): A (95-100)
GR50, POLCO (POLCO (wild buckwheat); [2]): 10 g ai/ha
GR80, POLCO (POLCO (wild buckwheat); [3]): 41 g ai/ha
GR90, POLCO (POLCO (wild buckwheat); [4]): 84 g ai/ha
pest or weed control at 35 g/ha (TRZSS; Triticum aestivum, post-emergence, 504 h, 35 g ai/ha, postemergence, read-out: Visual Growth Reduction (%) 21 Days After Application, TRZSS): 60 to 74%
pest or weed control at 70 g/ha (TRZSS; Triticum aestivum, post-emergence, 504 h, 70 g ai/ha, postemergence, read-out: Visual Growth Reduction (%) 21 Days After Application, TRZSS): 75 to 84%
pest or weed control at 140 g/ha (TRZSS; Triticum aestivum, post-emergence, 504 h, 140 g ai/ha, postemergence, read-out: Visual Growth Reduction (%) 21 Days After Application, TRZSS): 75 to 84%
GR10, TRZSS (TRZSS; [5]): 1 g ai/ha
GR20, TRZSS (TRZSS; [6]): 1 g ai/ha
Visual Growth Reduction (%) 21 Days After Application, BRSSS (BRSSS; 35 g ai/ha): B (85-94)
Visual Growth Reduction (%) 21 Days After Application, BRSSS (BRSSS; 70 g ai/ha): B (85-94)
Visual Growth Reduction (%) 21 Days After Application, BRSSS (BRSSS; 140 g ai/ha): B (85-94)
GR50, BRSSS (BRSSS; [2]): 1 g ai/ha
GR80, BRSSS (BRSSS; [3]): 11 g ai/ha
GR90, BRSSS (BRSSS; [4]): 41 g ai/ha
pest or weed control at 35 g/ha (HORSS; Hordeum vulgare, post-emergence, 504 h, 35 g ai/ha, postemergence, read-out: Visual Growth Reduction (%) 21 Days After Application, HORSS): 60 to 74%
pest or weed control at 70 g/ha (HORSS; Hordeum vulgare, post-emergence, 504 h, 70 g ai/ha, postemergence, read-out: Visual Growth Reduction (%) 21 Days After Application, HORSS): 75 to 84%
pest or weed control at 140 g/ha (HORSS; Hordeum vulgare, post-emergence, 504 h, 140 g ai/ha, postemergence, read-out: Visual Growth Reduction (%) 21 Days After Application, HORSS): 85 to 94%
GR10, HORSS (HORSS; [5]): 1 g ai/ha
GR20, HORSS (HORSS; [6]): 2 g ai/ha
Visual Growth Reduction (%) 21 Days After Application, SASKR (SASKR (Russian thistle); 35 g ai/ha): D (60-74)
Visual Growth Reduction (%) 21 Days After Application, SASKR (SASKR (Russian thistle); 70 g ai/ha): D (60-74)
Visual Growth Reduction (%) 21 Days After Application, SASKR (SASKR (Russian thistle); 140 g ai/ha): C (75-84)
GR50, SASKR (SASKR (Russian thistle); [2]): 1 g ai/ha
GR80, SASKR (SASKR (Russian thistle); [3]): >140 g ai/ha
GR90, SASKR (SASKR (Russian thistle); [4]): >140 g ai/ha
pest or weed control at 35 g/ha (KCHSC (kochia); Bassia scoparia, post-emergence, 504 h, 35 g ai/ha, postemergence, read-out: Visual Growth Reduction (%) 21 Days After Application, KCHSC): 95 to 100%
pest or weed control at 70 g/ha (KCHSC (kochia); Bassia scoparia, post-emergence, 504 h, 70 g ai/ha, postemergence, read-out: Visual Growth Reduction (%) 21 Days After Application, KCHSC): 95 to 100%
pest or weed control at 140 g/ha (KCHSC (kochia); Bassia scoparia, post-emergence, 504 h, 140 g ai/ha, postemergence, read-out: Visual Growth Reduction (%) 21 Days After Application, KCHSC): 95 to 100%
GR50, KCHSC (KCHSC (kochia); [2]): 1 g ai/ha
GR80, KCHSC (KCHSC (kochia); [3]): 3 g ai/ha
GR90, KCHSC (KCHSC (kochia); [4]): 9 g ai/ha
